Data reported in PMC3154276, “The Effect of the Potential PhoQ Histidine Kinase Inhibitors on Shigella flexneri Virulence” (PLoS ONE, 2011).

Experiments:
Format in all cases: cell-based
[1] = test system: S. flexneri Sf9380; experiment: Gentamicin protection assay, HeLa cell invasion by Sf9380; details: for invasion of HeLa cells by Sf9380 (bacteria recovered / inoculated): bacteria pre-treated 8 hours, untreated Sf9380 5.87×10^−2
Experimental: The growth curve of Sf9380 treated with or without potential PhoQ inhibitors at concentration 200 µmol/L were tested. […] The gentamicin protection assay was used as a cellular model to evaluate the inhibitory effect of the four potential PhoQ inhibitors. The bacteria were treated with each of the four potential PhoQ inhibitors in a serial dilution and grown for 8 hours. Next, the bacteria were inoculated and incubated with HeLa cells for 60 min prior to the addition of gentamicin to kill extracellular bacteria. For testing intracellular growth and spreading to adjacent cell, cells were further incubated for 290 min [9]. The results of the assays were expressed as the number of bacteria recovered from gentamicin-treated cells divided by the number of inoculated bacteria added to the cell. After lysates of HeLa cells were plated, the number of CFU that formed on LB agar were counted.
Figure 6 The effects of potential PhoQ inhibitors on virulence of Shigella. […] The bacteria pre-treated with potential PhoQ inhibitor were added to HeLa cells at a multiplicity of infection of 100. Then gentamicin was added to kill extracellular bacteria and cell lysates were plated onto LB plates, and the colonies were counted. The results of the assays were expressed as the number of bacteria recovered from gentamicin-treated cells divided by the number of inoculated bacteria added to the cell. S. flexneri Sf9380 (treated without DMSO), a clinical strain with strong virulence, served as the positive control for the cell invasion assay; E. coli ATCC 25922 (treated without DMSO), an avirulent strain, served as the negative control for the cell invasion assay; bacteria treated with 0.1% DMSO (the solvent of the potential PhoQ inhibitor) also served as a control for the cell invasion assay. Values are means ± standard deviations from 6 independent wells. *p<0.01 vs. Sf9380. (A) The effects of potential PhoQ inhibitors on cell invasion of S. flexneri Sf9380 (B) The effects of potential PhoQ inhibitors on intracellular growth S. flexneri Sf9380. (C) The effects of potential PhoQ inhibitors on cell invasion of S. flexneri 2a 301 phoQ/phoP knock-out mutant.
Bacterial ability to invade HeLa cells was tested with a gentamicin protection assay. HeLa cells were grown in six-well tissue culture plates to semi-confluent monolayers (DMEM, 10% FCS, 5% CO2). Sf9380 or Sf301 ΔphoQ/phoP was treated with potential PhoQ inhibitors for 8 hours in LB at 37°C (final concentrations of 100,50,25,12.5 or 6.25 µmol/L) prior to infection. The bacteria pre-treated with potential PhoQ inhibitor without washing, were added to semi-confluent HeLa cells at a multiplicity of infection of 100, at the same time the bacteria were diluted and plated onto LB agar plates. The CFUs were counted as initial bacterial number before added into HeLa cells. Then the plates were centrifuged at 900×g for 5 minutes. After incubating at 37°C for 60 minutes (For testing intracellular growth and spreading to adjacent cell, cells were further incubated for 290 min [9].), the cells were washed three times with PBS, and gentamicin was added to the medium to a final concentration of 10 µg/ml for 20 minutes at 37°C. After the incubation, the HeLa cells in each well were lysed in 1 ml of PBS containing 0.1% Triton X-100 for 10 minutes at room temperature. The lysates were diluted and plated onto LB agar plates in triplicate. Colonies grown on LB plates were counted. The results of the assays were expressed as the number of bacteria recovered from gentamicin-treated cells divided by the number of inoculated bacteria added to the cell. The cells were inoculated with untreated Sf9380 or Sf301 ΔphoQ/phoP (treated without DMSO) as a positive control and E. coli ATCC 25922, an avirulent strain treated without DMSO, as a negative control. […]

[2] = Cytotoxicity MTT assay on Vero cells; details: African green monkey, highest concentration tested 200 µmol/L, read-out: CC50 on Vero cell
Experimental: The cytotoxicity of each potential PhoQ inhibitor towards a Vero cell line was analyzed by the traditional MTT assay. The CC50 values of all four compounds were higher than 200 µmol/L, the highest tested concentration of potential PhoQ inhibitors. As a control, an equal concentration of DMSO (0.1%) was added to a well of Vero cells, and no obvious cytotoxicity was observed (Table 1).
Cytotoxicity of the potential PhoQ inhibitors on cultured Vero cells was measured by using the Cell Proliferation Kit I (MTT) (Roche, Indianapolis, USA). An equal concentration of DMSO (0.1%) in the medium was used as a negative control. The cytotoxicity assay was performed in triplicate for each potential PhoQ inhibitor, and the assay for each potential PhoQ inhibitor was repeated twice. The results were converted to percentage of the control (cells only containing 0.1% DMSO) and CC50 (concentrations that produce a 50% cytotoxicity effect on Vero cell) of each potential PhoQ inhibitors was calculated using the Origin v7.0 software (OriginLab, Northampton, USA).

[3] = test system: S. flexneri 2a 301 phoQ/phoP knock-out mutant (Sf301 ΔphoQ/phoP); experiment: Gentamicin protection assay, HeLa cell invasion by phoQ/phoP knock-out mutant; details: HeLa cells; for cell invasion rate of Sf301 ΔphoQ/phoP: untreated mutant 0.069; for effect on cell invasion of Sf301 phoQ/phoP knock-out mutant: Figure 6C
Experimental: Bacterial ability to invade HeLa cells was tested with a gentamicin protection assay. HeLa cells were grown in six-well tissue culture plates to semi-confluent monolayers (DMEM, 10% FCS, 5% CO2). Sf9380 or Sf301 ΔphoQ/phoP was treated with potential PhoQ inhibitors for 8 hours in LB at 37°C (final concentrations of 100,50,25,12.5 or 6.25 µmol/L) prior to infection. The bacteria pre-treated with potential PhoQ inhibitor without washing, were added to semi-confluent HeLa cells at a multiplicity of infection of 100, at the same time the bacteria were diluted and plated onto LB agar plates. The CFUs were counted as initial bacterial number before added into HeLa cells. Then the plates were centrifuged at 900×g for 5 minutes. After incubating at 37°C for 60 minutes (For testing intracellular growth and spreading to adjacent cell, cells were further incubated for 290 min [9].), the cells were washed three times with PBS, and gentamicin was added to the medium to a final concentration of 10 µg/ml for 20 minutes at 37°C. After the incubation, the HeLa cells in each well were lysed in 1 ml of PBS containing 0.1% Triton X-100 for 10 minutes at room temperature. The lysates were diluted and plated onto LB agar plates in triplicate. Colonies grown on LB plates were counted. The results of the assays were expressed as the number of bacteria recovered from gentamicin-treated cells divided by the number of inoculated bacteria added to the cell. The cells were inoculated with untreated Sf9380 or Sf301 ΔphoQ/phoP (treated without DMSO) as a positive control and E. coli ATCC 25922, an avirulent strain treated without DMSO, as a negative control. DMSO is the solvent of the potential PhoQ inhibitor compounds; therefore, Sf9380 was also treated with the same amount of 0.1% DMSO as the other groups to control for any DMSO-specific effects. The cell invasion assay was performed in triplicate for each potential PhoQ inhibitor, and the assay was repeated twice.

Structure (SMILES): CCOc1ccccc1-c1cc(C(=O)N/N=C/c2ccc(OCc3ccccc3)c(OC)c2)c2ccccc2n1 [Compound 2]
- times lower invasion than the control ([1]; 25 µmo/L, HeLa cells): 16.3 times
- effect on invasion of HeLa cells by Sf9380 ([1]; concentrations lower than 25 µmo/L): no obvious effects
- CC50 [2]: > 200 µM
- cell invasion rate of Sf301 ΔphoQ/phoP ([3]; 25 µmo/L): 0.102
- effect on cell invasion of Sf301 phoQ/phoP knock-out mutant [3]: no obvious effects

Structure (SMILES): O=C(Nc1ccc(C2(c3cccc(NC(=O)c4cccc5ccccc45)c3)c3ccccc3C(=O)c3ccccc32)cc1)c1ccc2ccccc2c1 [Compound 1]
- times lower invasion than untreated Sf9380 ([1]; 12.5 µmo/L, HeLa cells): 4.3 times
- invasion of HeLa cells by Sf9380 (bacteria recovered / inoculated) ([1]; 12.5 µmo/L): 1.36×10^−2
- effect on invasion of HeLa cells by Sf9380 ([1]; concentrations lower than 12.5 µmo/L): no obvious effects
- CC50 [2]: > 200 µM
- cell invasion rate of Sf301 ΔphoQ/phoP ([3]; 12.5 µmo/L): 0.064
- effect on cell invasion of Sf301 phoQ/phoP knock-out mutant [3]: no obvious effects

Structure (SMILES): O=C(O)c1ccc(Cl)c(-c2ccc(/C=N/NC(=O)c3ccc(Br)cc3)o2)c1 [Compound 3]
- invasion of HeLa cells by Sf9380 (bacteria recovered / inoculated) ([1]; 100 µmo/L): 1.95×10^−2
- effect on invasion of HeLa cells by Sf9380 ([1]; concentrations lower than 100 µmo/L): no obvious effects
- CC50 [2]: > 200 µM
- cell invasion rate of Sf301 ΔphoQ/phoP ([3]; 100 µmo/L): 0.083
- effect on cell invasion of Sf301 phoQ/phoP knock-out mutant [3]: no obvious effects

Structure (SMILES): O=C(O)c1cc(-c2ccc(-c3ccccc3Cl)o2)nc2ccc3ccccc3c12 [Compound 4]
- effect on invasion of HeLa cells by Sf9380 ([1]; 100 µmo/L): no effect
- CC50 [2]: > 200 µM
- cell invasion rate of Sf301 ΔphoQ/phoP ([3]; 100 µmo/L): 0.053
